{"source": "paper PMC9569450", "about": "“Dual Effect of Tryptamine on Prostate Cancer Cell Growth Regulation: A Pilot Study” (International Journal of Molecular Sciences, 2022)", "key": {"[1]": {"tested_on": "PC-3, LNCaP, RWPE-1, A549, PANC-1, and HepG2 cells", "assay": "MTT cell proliferation assay, all cell lines", "format": "cell-based", "conditions": "all cell lines tested; read-out: IC50 values for all six cell lines tested", "method": "PC-3, LNCaP, RWPE-1, HepG2, A549, and PANC-1 cells were purchased from the National Collection of Authenticated Cell Cultures (Shanghai, China). PC-3 and A549 cells were cultured in F-12K Nutrient Mixture (Gibco, New York, NY, USA), LNCaP in RPMI 1640 (Gibco, New York, NY, USA), PANC-1 in Dulbecco’s Modified Eagle Medium (DMEM, Gibco, New York, NY, USA), and HepG2 in minimal essential medium (MEM, Gibco, New York, NY, USA). All the above cell cultures were supplied with 10% fetal bovine serum and 1% penicillin-streptomycin. RWPE-1 cells were cultured in keratinocyte serum-free medium (K-SFM, Gibco, New York, NY, USA) supplemented with 50 mg/L bovine pituitary extract and 5 μg/L epidermal growth factor (EGF). All cell lines were grown in a humidified atmosphere of 5% CO2 at 37 °C.\nCells were seeded in 100 μL complete medium in a 96-well plate, at a density of 10,000 cells/well for LNCaP and 5000 cells/well for other cells. Cells were pre-incubated for 24 h to allow for adherence before removal of complete medium and treatment with various concentrations of compounds in fetal bovine serum (FBS)-free medium for 48 h. After treatment, 20 μL/well MTT (5 mg/mL) was added and incubated for 3–4 h at 37 °C, and then 100 μL/well DMSO was added for MTT assay. The plate was shaken on an orbital shaker for 10 min. Absorbance was measured using a microplate reader at 492 nm for the MTT assay (performed in triplicates). Cell viability was normalized to control. Half inhibitory concentration (IC50) was calculated by SPSS Statistics 17.0. The combination index (CI) isobologram equation was used for the quantitative determination of the interaction between two compounds [62]:(1) Combination index CI =CA,x/ICx,A+CB,x/ICx,B where CA,x and CB,x are compound concentrations that […], and ICx,A and ICx,B are compound concentrations that provide the same effect when being used in combination. The experiments were independently repeated two to three times."}, "[2]": {"tested_on": "PC-3 cells", "assay": "Cell viability of PC-3 cells after 24 h (Figure S1)", "format": "cell-based, human", "method": "Figure S1. Cell viability of PC-3 cell treated with various concentrations of tryptamine […]\nFigure S2. Liver function test results and effects of tryptamine and 3-HAA treatments on the tumor growth of PC-3 xenograft mouse model. (A and B) Appearance and aspartate aminotransferase (AST, U/L) value of the liver of PC-3 xenograft mice received intraperitoneal administration of tryptamine (80 mg/kg, n = 6) and intratumoral administration of tryptamine (1 mg/100 mm3, n = 5), respectively. Size of the tumors of PC-3 xenograft mice received intratumoral administration of (C and E) tryptamine (1 mg/100 mm3) and 3-HAA (200 mg/kg) and intraperitoneal administration of (D and F) tryptamine (80 mg/kg) and 3-HAA (200 mg/kg), respectively.\nFigure S3. Heatmap overview of altered PC-3 cell metabolic profiles in LC-MS (A) positive and (B) negative ion modes before and after tryptamine treatment.\nFigure S4. MS/MS analyses of the discriminant metabolites in panels.\nFigure S1. Cell viability of PC-3 cell treated with various concentrations of tryptamine for 24h. […]"}, "[3]": {"tested_on": "PC-3 cells", "assay": "UPLC-HRMS cell metabolomics of tryptamine-treated PC-3 cells", "format": "cell-based, human", "method": "The cells were seeded in 10 cm Petri dishes at a density of 1 × 10^6 cells/dish. After incubation overnight for adherence, cells were subjected to treatment with tryptamine (0.3 mM) in FBS-free medium, and control samples were treated with FBS-free medium. […] For cellular metabolite extraction, cells were first washed with PBS for three times, then 8 mL extraction solvent (methanol: acetonitrile: 0.5 M formic acid, 2:2:1 v/v/v) was added for quenching and cell lysis. The mixture was vortexed and sonicated on ice for 15 min to extract metabolites, and then centrifuged at 13,000 rpm for 10 min at 4 °C. The supernatant was collected and dried under vacuum. Before analysis, the sample was reconstituted in 100 μL H2O.\nThe chromatographic method involved elution with water with 0.1% acetic acid (A) and acetonitrile (B). The gradient program of cell metabolomics was as follows: 0–1 min 98–99% A, 1–3 min 2–30% A, 3–8 min 30–50% A, 8–10 min 50–95% A, 10–15 min 95–95% A. The flow rate was constant at 0.3 mL/min. […] The column was maintained at 35 °C. After each run, the gradient was re-equilibrated to its initial conditions over 6 min. Sample injection volume was 10 μL. The main mass spectrometer parameters were set as follows: capillary temperature 300 °C; capillary voltage and tube lens 20 V and 35 V, respectively, for positive mode, and 40 V and 80 V, respectively, for negative mode; spray voltage 4.0 kV in positive mode, and 2.5 kV and 2.8 kV in negative mode for serum and cell metabolite profiling, respectively; auxiliary gas, sheath gas and sweep gas flow rate 10, 40, and 0 arbitrary units, respectively. Data were acquired in the m/z range of 50–1000. The resolving power was 60,000 at m/z 195. Ultra-high-purity argon (≥99.999%) was used as the collision gas in UPLC–MS/MS experiments, and normalized collision voltages were in the range of 15–55 V.\nRaw data was pre-processed using Progenesis QI software version 2.4 (Nonlinear Dynamics, Waters Corporation, Milford, CT, USA), which included peak picking and alignment. A data matrix table containing metabolic peak identity (retention time (Rt and m/z pair)) and peak abundances in samples was obtained. We used our previously designed FORTRAN program for data post-processing, including analyses of adducts, in-source fragments and chloride isotopic ions, contaminant and artefact ion removal, QC-based scaling, and normalization. Principal components analysis (PCA) and oPLS-DA (orthogonal partial least squares-discriminant analysis) were applied for sample classification using the PLS Toolbox software (version 8.9.1, Eigenvector Research, Inc., Manson, WA, USA) based on Matlab R2021a (version 9.10.0, MathWorks, Natick, MA, USA). Differential metabolites were identified with p-value < 0.05 and variance importance in projection (VIP) value greater than 1. The metabolites were identified based on accurate mass matching to theoretical values within a 2 mDa tolerance and MS/MS matching with spectral data in Human Metabolome Database (HMDB) and/or manual analysis of MS/MS spectra (Figure S4). MetaboAnalyst 5.0 was used for metabolic pathway and network analyses."}, "[4]": {"conditions": "0.3 mM, treatment/control ratio, negative = decreased"}}}
{"compound": "NCCc1c[nH]c2ccccc12", "note": "[Tryptamine]", "values": [{"measurement": "IC50", "setting": "[1]", "result": "≤ 900", "unit": "µM"}, {"measurement": "viability at 300 µM", "setting": "[2]; Homo sapiens, PC-3, 0.3 mM, read-out: percentage of viable cells", "result": 75, "unit": "%"}, {"measurement": "cell viability compared to the control group", "setting": "[2]; PC-3, 0.15 mM", "result": "no significant change in cell viability"}, {"measurement": "Fold Change of ketoleucine", "setting": "[3]; 0.3 mM, treatment/control ratio", "result": 0}, {"measurement": "Fold Change of arginine", "setting": "[3]; [4]", "result": "−1.9"}, {"measurement": "Fold Change of aspartic acid", "setting": "[3]; [4]", "result": "−3.2"}, {"measurement": "Fold Change of creatine", "setting": "[3]; [4]", "result": "−2.0"}, {"measurement": "Fold Change of pantothenic acid", "setting": "[3]; [4]", "result": "−1.6"}, {"measurement": "Fold Change of proline", "setting": "[3]; [4]", "result": "−2.0"}, {"measurement": "Fold Change of spermidine", "setting": "[3]; [4]", "result": "−2.1"}, {"measurement": "Fold Change of spermine", "setting": "[3]; [4]", "result": "−2.1"}, {"measurement": "Fold Change of 5-HT", "setting": "[3]; 0.3 mM, treatment/control ratio, positive = increased", "result": "1.4 × 10^3"}, {"measurement": "aspartic acid, fold decrease compared to the control group", "setting": "[3]; tryptamine treated group", "result": 3.2, "unit": "fold"}]}
